{
  "source": "paper PMC6862662",
  "about": "“In Vitro Evaluation and Docking Studies of 5-oxo-5H-furo[3,2-g]chromene-6-carbaldehyde Derivatives as Potential Anti-Alzheimer’s Agents” (International Journal of Molecular Sciences, 2019)",
  "key": {"AChE [1]": {"biological_target": "T1, AChE (Homo sapiens, UniProt P22303)", "T1 construct": "purchased BL, purchased through BIOCOM Africa (Pty) Ltd. 768104", "T1 sequence (P22303 32-614)": "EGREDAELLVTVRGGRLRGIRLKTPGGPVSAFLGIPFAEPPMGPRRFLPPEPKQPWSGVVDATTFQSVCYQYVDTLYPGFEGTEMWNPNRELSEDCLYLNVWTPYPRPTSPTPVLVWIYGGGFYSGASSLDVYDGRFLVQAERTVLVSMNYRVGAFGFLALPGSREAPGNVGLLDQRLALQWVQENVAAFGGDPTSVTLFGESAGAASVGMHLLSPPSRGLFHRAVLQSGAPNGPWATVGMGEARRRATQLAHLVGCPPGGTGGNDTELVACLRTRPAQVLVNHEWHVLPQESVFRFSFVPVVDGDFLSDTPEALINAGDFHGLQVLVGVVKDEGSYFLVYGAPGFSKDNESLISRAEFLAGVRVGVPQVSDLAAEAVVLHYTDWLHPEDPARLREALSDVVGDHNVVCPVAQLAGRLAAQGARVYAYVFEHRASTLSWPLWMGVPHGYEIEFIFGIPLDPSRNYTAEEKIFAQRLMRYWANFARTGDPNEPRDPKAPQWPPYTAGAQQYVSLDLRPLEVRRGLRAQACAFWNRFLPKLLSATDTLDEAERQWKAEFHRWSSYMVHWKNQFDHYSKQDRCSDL", "assay": "biochemical"}, "BChE [2]": {"biological_target": "T2, BChE (Homo sapiens, UniProt P06276)", "T2 construct": "purchased cloud-clone corp., purchased through BIOCOM Africa (Pty) Ltd. RPC348Hu0 2_100", "T2 sequence (P06276 29-602)": "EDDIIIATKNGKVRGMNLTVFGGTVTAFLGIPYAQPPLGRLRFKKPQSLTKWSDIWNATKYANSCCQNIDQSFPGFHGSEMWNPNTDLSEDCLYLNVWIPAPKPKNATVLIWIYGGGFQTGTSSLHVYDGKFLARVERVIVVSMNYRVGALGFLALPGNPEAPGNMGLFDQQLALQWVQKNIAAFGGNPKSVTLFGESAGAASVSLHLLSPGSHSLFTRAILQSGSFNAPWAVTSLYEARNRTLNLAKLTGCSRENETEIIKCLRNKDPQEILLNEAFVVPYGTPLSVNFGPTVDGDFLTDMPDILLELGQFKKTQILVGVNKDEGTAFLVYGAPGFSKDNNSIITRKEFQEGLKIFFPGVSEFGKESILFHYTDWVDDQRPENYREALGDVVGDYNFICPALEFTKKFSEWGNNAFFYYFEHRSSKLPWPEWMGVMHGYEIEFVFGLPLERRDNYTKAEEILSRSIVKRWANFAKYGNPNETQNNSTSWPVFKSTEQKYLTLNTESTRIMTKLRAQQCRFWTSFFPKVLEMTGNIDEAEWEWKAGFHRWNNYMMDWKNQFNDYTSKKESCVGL", "assay": "biochemical", "procedure": "The mixtures were incubated for 15 min at RT. The reaction was initiated by adding of 10 µL of mixture solution of 5 mM 5,50-dithio-bis-nitrobenzoic acid (DTNB) in 50 mM tris buffer (pH 7.7) and 10 µL acetylthiocholine (ASCh; 5 mM) in 50 mM tris buffer, pH 7.7 into the wells containing the mixtures. The hydrolysis of ASCh was determined by monitoring the formation of the yellow 5-thio-2-nitrobenzoate anion resulting from reaction of DTNB with thiocholines (SCh).\nThe IC50 values were determined graphically from inhibition curves (inhibitor concentration and absorbance) using the graph pad prism."}, "human recombinant BACE-1": {"biological_target": "T3, human recombinant BACE-1 (Homo sapiens, UniProt P56817)", "T3 construct": "purchased Pan Vera; host or cells: baculovirus-expressed", "T3 sequence (P56817 46-501)": "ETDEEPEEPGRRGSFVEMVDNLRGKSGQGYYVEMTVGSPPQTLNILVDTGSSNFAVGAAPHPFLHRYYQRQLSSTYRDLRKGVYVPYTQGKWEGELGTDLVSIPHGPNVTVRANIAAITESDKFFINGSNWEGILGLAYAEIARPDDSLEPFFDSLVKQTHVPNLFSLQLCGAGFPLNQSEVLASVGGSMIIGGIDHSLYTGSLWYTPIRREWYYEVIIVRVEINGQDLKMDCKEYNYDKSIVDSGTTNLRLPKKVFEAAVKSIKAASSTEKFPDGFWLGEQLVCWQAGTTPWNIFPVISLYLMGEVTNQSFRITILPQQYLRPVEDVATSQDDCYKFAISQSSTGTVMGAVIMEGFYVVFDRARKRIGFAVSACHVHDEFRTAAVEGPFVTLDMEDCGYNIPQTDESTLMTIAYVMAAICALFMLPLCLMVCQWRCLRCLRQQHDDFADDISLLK", "assay": "β-secretase FRET inhibitory assay", "format": "biochemical", "conditions": "triplicate"}, "[3]": {"system": "lipoxygenase-15 (Soybean LOX-15)", "format": "biochemical", "conditions": "ratio not defined in print; matches IC50 LOX-15/LOX-5", "procedure": "Stock solutions (200 µM) of tested samples were prepared in DMSO. The stock solutions were further diluted with 50 mM Tris buffer of pH 7.7 to obtain concentrations of 0.01, 0.1, 1, 10 and 100 µM. The cells of a 96-well plate where distributed as follows: two wells taken as blanks (100 µL 50 mM Tris buffer pH 7.7), two wells taken as positive controls (90 µL of 15-LO Standard and 10 µL of DMSO) and two wells as 100% initial activity wells (90 µL lipoxygenase enzyme solution and 10 µL tris buffer). […] The 96-well plate was then incubated for 5 min at room temperature. The reaction was initiated by the addition of 10 µL of the substrate (arachidonic acid) to each well containing the mixtures. After shaking the 96-well plate on a shaker for 5 min, 100 µL of the chromogen (solution of equal volume developing reagent 1 and 2) was added to each well to stop enzyme catalysis and develop the reaction. The plate was again shaken for 5 min and the absorbance read at 490 nm in a Varioskan flash microplate spectrophotometer reader. The inhibitory concentration was expressed as a percentage using the formula below. […]\nASample is the absorbance of the reaction mixture of the test sample, ABlank sample is the absorbance of the reaction mixture containing all reagents except enzyme and AInitial activity is the absorbance of 100% initial activity."}, "[4]": {"biological_target": "T4, human lipoxygenase-5 (LOX-5) (Homo sapiens, UniProt P09917)", "T4 construct": "purchased BioVision K980", "T4 sequence (P09917 1-674)": "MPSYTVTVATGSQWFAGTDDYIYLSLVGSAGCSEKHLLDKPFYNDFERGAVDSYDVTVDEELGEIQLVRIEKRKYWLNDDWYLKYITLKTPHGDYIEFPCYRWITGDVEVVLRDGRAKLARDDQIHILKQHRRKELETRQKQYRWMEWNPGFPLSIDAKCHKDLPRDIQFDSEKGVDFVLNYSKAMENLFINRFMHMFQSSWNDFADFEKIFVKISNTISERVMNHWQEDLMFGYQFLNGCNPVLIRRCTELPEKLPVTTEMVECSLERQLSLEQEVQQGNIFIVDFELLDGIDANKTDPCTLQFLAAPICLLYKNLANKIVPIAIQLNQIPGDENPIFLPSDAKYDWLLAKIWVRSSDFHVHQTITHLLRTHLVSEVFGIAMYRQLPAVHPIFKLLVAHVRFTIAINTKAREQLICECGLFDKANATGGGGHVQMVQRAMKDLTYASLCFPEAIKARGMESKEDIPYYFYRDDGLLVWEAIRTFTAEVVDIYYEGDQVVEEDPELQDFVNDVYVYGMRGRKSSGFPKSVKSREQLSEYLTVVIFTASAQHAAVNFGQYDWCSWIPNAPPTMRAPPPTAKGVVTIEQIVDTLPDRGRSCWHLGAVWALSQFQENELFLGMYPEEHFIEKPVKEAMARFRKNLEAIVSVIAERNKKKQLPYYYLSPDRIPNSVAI", "assay": "Human LOX-5 inhibitory assay", "format": "biochemical", "conditions": "human LOX-5, duplicate", "procedure": "The reagents were prepared according to the Lipoxygenase inhibitor screening kit (Item No. K980; BioVision, Milpitas Blvd, Milpitas, CA, USA) standard protocol. […] The cells of a 96-well plate where distributed as follows: two wells were taken as blanks (100 µL of assay buffer), two wells enzyme controls (90 µL of 15-LO Standard and 10 µL of tris buffer), two wells as 100% initial activity wells (90 µL and 10 µL DMSO) and three wells as enzyme control (40 µL). […] Forty µL of the reaction mixture (prepared by mixing thoroughly 36 µL of LOX assay buffer, 2 µL of LOX probe and 2 µL of 5-LOX enzyme) were added to each well and incubated for 10 min. at RT. The DMSO concentration in each reaction well was 1% to prevent enzyme structural deformation and therefore, reduced activity. […] The percentage inhibition (%) was calculated using the equation below. (4) % Inhibition=Control−Test/Control×100."}, "[5]": {"assay": "DPPH radical scavenging activity assay", "conditions": "triplicate, preliminary", "description": "DPPH radical scavenging activity of compounds 2b, 2f, 3b, 3d and 3f was evaluated following the literature method. Ascorbic acid (Sigma Aldrich, Saint Louis, Missouri, USA) was used as a positive control. The test compounds and controls at various concentrations ranging from (0 µM to 40 µM) in DMSO were mixed with a solution of DPPH (0.20 mM) in methanol. The mixtures were incubated in the dark for 45 min and the absorbances were recorded at 512 nm using Varioskan flash microplate spectrophotometer reader. All tests and analyses were run in triplicate and averaged. The inhibition was calculated in terms of percentage using the formula below:(5) DPPH radical scavenged (%)=AbC−AbS/AbC×100, where AbC is absorbance of control and AbS the absorbance of the test sample."}, "AChE [6]": {"biological_target": "T1, AChE", "assay": "Kinetic studies against AChE (Lineweaver–Burk and Dixon plots)", "format": "biochemical", "description": "(§1) Compounds 2f, 2b, 2f, 3b, 3d and 3f were selected for the kinetic studies with substrate concentrations 0.1, 0.5, 2. 5 and 5 µM for ChEs following procedures described in our previous investigation. The Lineweaver–Burk plots (plots of the inverse of velocity (1/v) against the inverse of the substrate concentration (1/[S])) were used to ascertain the mode of inhibition of these compounds."}, "BChE [7]": {"biological_target": "T2, BChE", "assay": "Kinetic studies against BChE (Lineweaver–Burk and Dixon plots)", "format": "biochemical", "description": "as §1"}, "β-secretase (BACE-1)": {"biological_target": "T5, β-secretase (BACE-1) (Homo sapiens, UniProt P56817)", "T5 construct": "purchased Pan Vera; host or cells: baculovirus-expressed", "T5 sequence (P56817 46-501)": "as the sequence (P56817 46-501) above", "assay": "Kinetic studies against β-secretase (Lineweaver–Burk and Dixon plots)", "format": "biochemical", "description": "Compound 2f was selected for the kinetic studies with substrate concentrations 150, 300 and 450 nM for β-secretase following procedure described in our previous investigation. The Lineweaver–Burk plot (plot of the inverse of velocity (1/v) against the inverse of the substrate concentration (1/[S])) was used to ascertain the mode of inhibition of this compound."}, "[8]": {"system": "breast cancer cell line MCF-7", "assay": "MTT cytotoxicity assay, MCF-7", "format": "cell-based", "conditions": "Homo sapiens, MCF7; MTT assay, 24 h, preliminary; read-out: IC50 against MCF-7 cancer cell line", "procedure": "(§2) Briefly, the cells were seeded in 96-well plate at a density of 20 × 10^3 cells per well and then incubated at 37 °C in 5% CO2 to allow cell attachment. […] An equal volume of medium was used as the control treatment. After treatment for 24 h, 10 μL MTT (5 mg/mL) was added to each well and the plate was further incubated for 4 h later. The supernatant was removed and 100 μL of DMSO was added to each well to dissolve the resulting formazan crystals. The absorbance was read at 570 nm using the Varioskan flash microplate spectrophotometer reader. The percentages of cell viability were used to determine the IC50 values."}, "Hek293-T cells": {"system": "Hek293-T cells", "assay": "MTT cytotoxicity assay, Hek293-T", "format": "cell-based", "conditions": "24 h, till 50 μM", "procedure": "as §2"}, "[9]": {"conditions": "Lineweaver–Burk and Dixon plots"}},
  "data": [
    {"smiles": "COc1ccc(-c2cc3cc4c(=O)c(C=O)coc4cc3o2)cc1", "note": "[Compound 2f, 2-(4-Methoxyphenyl)-5-oxo-5H-furo[3,2-g]chromene-6-carbaldehyde]", "values": [
      {"measurement": "IC50", "setting": "AChE [1]", "result": "9.4 ± 0.01", "unit": "µM"},
      {"measurement": "SI BChE/AChE", "setting": "AChE [1]; Selectivity index IC50 (BChE)/IC50 (AChE)", "result": 0.54},
      {"measurement": "IC50", "setting": "BChE [2]; Ellman's method, triplicate", "result": "5.1 ± 0.02", "unit": "µM"},
      {"measurement": "SI AChE/BChE", "setting": "BChE [2]; Selectivity index IC50 (AChE)/IC50 (BChE)", "result": 1.85},
      {"measurement": "IC50", "setting": "human recombinant BACE-1", "result": "15.4 ± 0.02", "unit": "µM"},
      {"measurement": "SI (LOX-15 vs LOX-5)", "setting": "[3]", "result": 0.63},
      {"measurement": "IC50", "setting": "[4]", "result": "15.3 ± 0.01", "unit": "µM"},
      {"measurement": "IC50", "setting": "[5]", "result": "18.1 ± 0.03", "unit": "µM"},
      {"measurement": "Ki", "setting": "AChE [6]; Dixon plots", "result": "1340 ± 20", "unit": "nM"},
      {"measurement": "mode of inhibition against AChE", "setting": "AChE [6]; [9]", "result": "competitive"},
      {"measurement": "Vmax against AChE", "setting": "AChE [6]; Lineweaver–Burk plots, increasing inhibitor concentration", "result": "0.03 ± 0.018"},
      {"measurement": "Ki", "setting": "BChE [7]; Dixon plots", "result": "3.9 ± 0.01", "unit": "µM"},
      {"measurement": "mode of inhibition against BChE", "setting": "BChE [7]; [9]", "result": "non-competitive"},
      {"measurement": "Ki", "setting": "β-secretase (BACE-1); Dixon plot", "result": "1490 ± 10", "unit": "nM"},
      {"measurement": "mode of inhibition against β-secretase", "setting": "β-secretase (BACE-1); [9]", "result": "mixed mode of inhibition"},
      {"measurement": "IC50", "setting": "[8]", "result": "8.65 ± 0.03", "unit": "µM"},
      {"measurement": "toxicity in Hek293-T cells", "setting": "Hek293-T cells", "result": "did not show any major toxicity"}
    ]}
  ]
}
